Non-standard residues stand in square brackets, D forms with d. Residues, ends and D or L forms follow the SMILES beside them. ξ: configuration not given here. *: point of attachment. Palmitoyl = CCCCCCCCCCCCCCCC(=O)*; ξY = NC(Cc1ccc(O)cc1)C(=O)O; ξR = N=C(N)NCCCC(N)C(=O)O; ξF = NC(Cc1ccccc1)C(=O)O; ξL = CC(C)CC(N)C(=O)O
Columns and labels:
[1] = Pharmacokinetics: brain levels after intravenous administration (UPLC-MS/MS); type: in vivo; conditions: ICR (CD-1) mice, dalargin dose of 30 mg kg-1, FIG. 1
Experimental: (§1) ICR (CD-1) male out bred mice (18-24 g, 4 weeks old, Harlan, Oxon, UK) were used for the pharmacokinetics evaluations while ICR (CD-1) male out bred mice (22-28 g, 4-5 weeks old) were used for the pharmacodynamics evaluations. The animals were housed in groups of 5 in plastic cages in controlled laboratory conditions with ambient temperature and humidity maintained at ˜22° C. and 60% respectively with a 12-hour light and dark cycle (lights on at 7:00 and off at 19:00). Food and water were available ad libitum and the animals acclimatised for 5-7 days prior to any experiments in the Animal House, School of Pharmacy, University of London (London, UK). Animals were only used once and were acclimatised in the testing environment for at least 1 hour prior to testing. […]
Groups (n=5) of animals were administered either: NaCl (0.9% w/v), Dalargin, Dalargin-GCPQA, pDal and pDal-GCPQA. […] At various time points, animals were killed and their brain, liver and plasma analysed. […]
Brain and Liver were immediately frozen in liquid Nitrogen after being taken from the mouse. […] The brain and liver weights were determined and 2 mL water per g of brain was added to each (equivalent to 2 g of solvent to 1 g of brain). […]

[2] = tested on: mice; test: Tail flick warm water bioassay (anti-nociception); type: in vivo; conditions: ICR (CD-1) mice, intravenous, dalargin dose of 15 mg kg-1, water at 55° C., FIG. 2
Experimental: as §1, with “UK).” for “UK). Animals were only used once and were acclimatised in the testing environment for at least 1 hour prior to testing.”
Anti-nociception was assessed in mice using the tail flick warm water bioassay (17, 18). […] The response latency times, in centiseconds, recorded for each mouse to withdraw its tail by a “sharp flick” were recorded using a digital stopwatch capable of measuring 1/100th of a second. […]
Two separate withdrawal latency determinations (separated by ≧20 sec) were averaged. […] Mice not responding within 5 sec were excluded from further testing (Baseline cut-off=5 seconds) and the baseline latency was measured for all mice 2 hours prior testing. […] Briefly, percent antinociception was calculated as 100%×(test latency-baseline latency)/(10 seconds-baseline latency). […]

**Q.** For Dalargin, which “Detection in the brain (brain levels)” value [1] is on record?
**A.** The value was “not detected in the brain”.

**Q.** What about the “Antinociceptive effect (% of Maximum Possible Effect, tail flick)” value [2] of the same compound?
**A.** Its value is “unable to exert an antinociceptive effect”.

**Q.** With CCCCCCCCCCCCCCCC(=O)Oc1ccc(CC(N)C(=O)N[C@H](C)C(=O)NCC(=O)NC(Cc2ccccc2)C(=O)NC(CC(C)C)C(=O)NC(CCCNC(=N)N)C(=O)O)cc1 (stereo partly drawn) [pDal, Palmitoyl Dalargin] (H-[ξY](Palmitoyl)[dA]G[ξF][ξL][ξR]-OH) as the compound, how does the “Detection in the brain (brain levels)” value [1] read?
**A.** The value was “detected in the brain”.

— patent publication US20130203647A1, “DELIVERY OF H[…]” (UNIVERSITY COLLEGE LONDON, priority 2010, published 2013)
